Data published in patent US20240207265A1, “TREATMENT OF CNS DISEASES WITH sGC STIMULATORS” (Tisento Therapeutics Inc., priority 2021, published 2024).

Test system: sleep-stage specific pharmaco-EEG
Assay: Sleep-wake pharmaco-EEG in telemeter-implanted rats
Assay type: in vivo, rat
Text: Young adult male Sprague-Dawley (SD) rats (˜275-325 grams on arrival) from Envigo (Indianapolis, IN) were used in the study. Upon receipt, rats were assigned unique identification numbers and housed with 3 rats per cage in polycarbonate cages with micro-isolator filter tops. All rats were examined and weighed prior to initiation of the study to assure adequate health and suitability. During the course of the study, 12/12 light/dark cycles were maintained. The room temperature was maintained between […] and 23° C. with a relative humidity maintained around 50%. Chow and water were provided ad libitum for the duration of the study. Following surgery, rats were single housed. After a period of recovery (7-10 days), animals were transferred to an EEG recording room and placed over a DSI receiver for recordings.
• a. Vehicle A • i. Route: PO • ii. Volume: 10 ml/kg • iii. Formulation: Water • b. Compound I-14 at 3 mg/kg • i. Route: PO • ii. Volume: 10 ml/kg • iii. Formulation: 3 mg/kg in water • c. Compound I-14 at 10 mg/kg • i. Route: PO • ii. Volume: 10 ml/kg • iii. Formulation: 10 mg/kg in water • d. Compound I-14 at 30 mg/kg • i. Route: PO • ii. Volume: 10 ml/kg • iii. Formulation: 30 mg/kg in water
Briefly, animals were implanted with DSI Telemetry devices (F50-EET) in a 3 channel (lead pairs) configuration. Note the positive and negative lead placements for each location. Each of the EEG channels on the DSI transmitter functions as a differential input whereby the differential input measures the difference between the positive and negative leads. Frontal/Parietal (right): (+) 2 mm Anterior, 2 mm Lateral; (−) 4 mm Posterior, 2 mm Lateral; Frontal/Frontal (bihemispheric): (+) 2 mm Anterior, 2 mm Lateral (right); (−) 2 mm Anterior, 2 mm Lateral (left); and neck EMG.
This study followed a Monday and Thursday dosing/recording schedule, where Baseline EEG was recorded 2 hours and then rats received first dose of Compound I-14 at 0.3, 3 or 10 mg/kg or Vehicle A (all orally) between 7:50-8:00 AM and a second dose of the same after about 12 hours, and EEG continued 12 hours afterwards. • EEG Recordings began at 6 AM (at time lights turn on) • Dosing occurred at 7:50 am AM (1 hour 50 minutes after lights ON) • 2nd dosing (same compound) occurred at 7:50 PM (1 hour and 50 minutes after lights OFF) • EEG Recordings continued until 7:50 AM the following day (24 hours after 1st dose and 12 hours after 2nd dose).
Animals were tested in a cross-over design with at least 72-hour washout period between doses. On each testing day, animals received compound or vehicle orally just under 2 hours (7:50 AM) after lights on (6:00 AM). Data were recorded from 2 hours prior to dosing and recorded continuously for 24 hours post dose.
Raw EEG recordings were manually scored using Neuroscore software (Data Sciences International) to identify sleep stages: Active Wake, Quiet Wake, NREM and REM. Using NeuroScore (DSI), artifacts were removed offline from the data and sleep stages assigned manually for every 10 s epoch using EEG, EMG and Locomotor activity (LMA) by conventional methods as previously described (Ivarsson et al., 2005; Parmentier-Batteur et al., 2012; Leiser et al., 2014, 2015) using the fronto-parietal EEG, LMA and EMG: active wake (less regular, low-amplitude EEG with high EMG and LMA activity); quiet wake (less regular, low-amplitude EEG, with low EMG and no LMA activity); NREM (consisting of high-amplitude irregular waves with predominant delta (1-4 Hz), low EMG and no LMA); REM sleep (stable, low-amplitude waves dominated by theta (4-8 Hz) with near absent EMG and no LMA).
The sleep stage data were exported from a Neuroscore report template of sleep state time per each 15 min (2 hours pre-dose to 4 hours post-dose). The onset of the first sleep and first REM were also reported directly from a Neuroscore report template. […]

**Q.** Which “EEG spectral power in QW” value (3 mg/kg PO) does the source give for `Cc1cc(F)c(Cc2nc(-c3ncc(F)c(O)n3)cn3ccnc23)cc1F` [Compound I-14, 5-fluoro-2-(8-(2,5-difluoro-4-methylbenzyl)imidazo[1,2-a]pyrazin-6-yl)pyrimidin-4-ol] here?
**A.** The value was “increased low gamma 0-180 minutes post dose”.

**Q.** What about the “EEG spectral power in QW” value (30 mg/kg PO) of the same compound?
**A.** Its value is “increased low gamma 0-240 and high gamma 0-180 minutes post dose”.

**Q.** What about the “EEG spectral power in NREM” value (30 mg/kg PO, ˜0-300 minutes post dose) of the same compound?
**A.** Its value is “decreased delta, theta, alpha and increased low and high gamma”.

**Q.** And the “REM and NREM in hypnograms vs vehicle (A) group” value (high dose (30 mg/kg) PO)?
**A.** The value was “notable decrease in REM and NREM”.

**Q.** And the “onset of NREM, REM and REM latency” value (high dose (30 mg/kg) PO)?
**A.** Its value is “delayed”.

**Q.** And the “Quiet Wake in hypnograms” value (highest dose (30 mg/kg) PO)?
**A.** The value was “increase in Quiet Wake”.
